# Earlier results, collected in PubChem BioAssay AID1259409 (Chemical Carcinogenesis Research Information System (CCRIS), 2018).
# Test system: rodent chemically induced tumor inhibition, incidence and multiplicity
# Test: CCRIS tumor inhibitor studies
# Conditions: Carcinogen: 7,12-DIMETHYLBENZ[A]ANTHRACENE, 57-97-6, Route [Inhibitor]: ORAL, Promoter: NONE USED
smiles,measurement,setting,value
O=[Se](O)O,"tumour outcome (control, treated, inhibition, significance)","Dose [Inhibitor]: 0, 0.5 UG/G IN DIET BEGINNING 2 WK PRIOR TO CARCINOGEN DOSE AND CONTINUING FOR 2 WK POST CARCINOGEN DOSE FOLLOWED BY BAS, Species: RAT, Strain/Sex: SPRAGUE-DAWLEY/FEMALE, Target Tissue: Type of Lesion: MAMMARY GLAND: TUMOR, Dose [Carcinogen]: 5 MG/KG","52%, 32%, 38%, not calculated"
same,"tumour outcome (control, treated, inhibition, significance)","Dose [Inhibitor]: 0, 1 UG/G IN DIET BEGINNING 2 WK PRIOR TO CARCINOGEN DOSE AND CONTINUING FOR 2 WK POST CARCINOGEN DOSE FOLLOWED BY BASAL, Species: RAT, Strain/Sex: SPRAGUE-DAWLEY/FEMALE, Target Tissue: Type of Lesion: MAMMARY GLAND: TUMOR, Dose [Carcinogen]: 5 MG/KG","52%, 24%, 54%, not calculated"
same,"tumour outcome (control, treated, inhibition, significance)","Dose [Inhibitor]: 0, 2 PPM (AS SELENIUM) IN DIET BEGINNING 2 WK PRIOR TO CARCINOGEN DOSE AND CONTINUING FOR DURATION OF STUDY (STUDY DURAT, Species: RAT, Strain/Sex: SPRAGUE-DAWLEY/FEMALE, Target Tissue: Type of Lesion: MAMMARY GLAND: ADENOCARCINOMA, Dose [Carcinogen]: 10 MG ONCE AT 55 D OF AGE","88%, 72%, 18%, not significant"
same,"tumour outcome (control, treated, inhibition, significance)","Dose [Inhibitor]: 0, 2 UG/G IN DIET BEGINNING 2 WK PRIOR TO CARCINOGEN DOSE AND CONTINUING FOR 2 WK POST CARCINOGEN DOSE FOLLOWED BY BASAL, Species: RAT, Strain/Sex: SPRAGUE-DAWLEY/FEMALE, Target Tissue: Type of Lesion: MAMMARY GLAND: TUMOR, Dose [Carcinogen]: 5 MG/KG","52%, 14%, 73%, not calculated"
same,"tumour outcome (control, treated, inhibition, significance)","Dose [Inhibitor]: 0, 2.5 MG/KG IN DIET TO ANIMALS ON VITAMIN E ADEQUATE DIETS (50 MG/KG) (STUDY DURATION: 20 WK), Species: RAT, Strain/Sex: SPRAGUE-DAWLEY/FEMALE, Target Tissue: Type of Lesion: MAMMARY GLAND: TUMOR, Dose [Carcinogen]: 5 MG ONCE AT 50 D OF AGE","19/25 (76%), 10/25 (40%), 47%, not calculated"
same,"tumour outcome (control, treated, inhibition, significance)","Dose [Inhibitor]: 0, 2.5 MG/KG IN DIET TO ANIMALS ON VITAMIN E DEFICIENT DIETS (10 MG/KG) (STUDY DURATION: 20 WK), Species: RAT, Strain/Sex: SPRAGUE-DAWLEY/FEMALE, Target Tissue: Type of Lesion: MAMMARY GLAND: TUMOR, Dose [Carcinogen]: 5 MG ONCE AT 50 D AGE","21/25 (84%), 17/25 (68%), 19%, not calculated"
same,"tumour outcome (control, treated, inhibition, significance)","Dose [Inhibitor]: 0, 3 PPM (AS SELENIUM) IN DIET BEGINNING 2 WK PRIOR TO CARCINOGEN DOSE AND CONTINUING FOR DURATION OF STUDY (STUDY DURAT, Species: RAT, Strain/Sex: SPRAGUE-DAWLEY/FEMALE, Target Tissue: Type of Lesion: MAMMARY GLAND: ADENOCARCINOMA, Dose [Carcinogen]: 10 MG ONCE AT 55 D OF AGE","88%, 52%, 41%, p<0.05"
same,"tumour outcome (control, treated, inhibition, significance)","Dose [Inhibitor]: 0, 3 UG/ML IN DRINKING WATER FROM 40-90 D OF AGE THEN 0, 2 UG/ML FROM 90-180 D OF AGE AND 0, 1 UG/ML FROM 180-240 D OF A, Dose [Inhibitor]: 0, 3 UG/ML IN DRINKING WATER FROM 40-90 D OF AGE THEN 0, 2 UG/ML FROM 90-180 D OF AGE AND 0, 1 UG/ML FROM 180-240 D OF A, Species: RAT, Strain/Sex: SPRAGUE DAWLEY/FEMALE, Target Tissue: Type of Lesion: MAMMARY GLAND: ADENOCARCINOMA, FIBROADENOMA, Dose [Carcinogen]: 5 MG IN 0.2 ML SESAME OIL 1/2 D FOR 12 D BEGINNING AT 50 D OF AGE","100%, 52%, 48%, p<0.001"
same,"tumour outcome (control, treated, inhibition, significance)","Dose [Inhibitor]: 0, 4 PPM IN DRINKING WATER BEGINNING 2 WK PRIOR TO CARCINOGEN DOSE AND CONTINUING FOR 1 WK POST CARCINOGEN DOSE (STUDY D, Species: RAT, Strain/Sex: SPRAGUE-DAWLEY/FEMALE, Target Tissue: Type of Lesion: MAMMARY GLAND: TUMOR, Dose [Carcinogen]: 10 MG IN 1 ML OLIVE OIL ONCE AT 7 WK OF AGE","19/21 (91%), 19/21 (91%), 0%"
same,"tumour outcome (control, treated, inhibition, significance)","Dose [Inhibitor]: 0, 4 UG/G IN DIET BEGINNING 2 WK PRIOR TO CARCINOGEN DOSE AND CONTINUING FOR 2 WK POST CARCINOGEN DOSE FOLLOWED BY BASAL, Species: RAT, Strain/Sex: SPRAGUE-DAWLEY/FEMALE, Target Tissue: Type of Lesion: MAMMARY GLAND: TUMOR, Dose [Carcinogen]: 5 MG/KG","52%, 10%, 81%, not calculated"
same,"tumour outcome (control, treated, inhibition, significance)","Dose [Inhibitor]: 0, 4 UG/G IN DIET BEGINNING 2 WK PRIOR TO CARCINOGEN DOSE AND CONTINUING FOR DURATION OF STUDY (STUDY DURATION: 43 WK), Species: RAT, Strain/Sex: SPRAGUE-DAWLEY/FEMALE, Target Tissue: Type of Lesion: MAMMARY GLAND: TUMOR, Dose [Carcinogen]: 5 MG/KG","52%, 5%, 90%, not calculated"
same,"tumour outcome (control, treated, inhibition, significance)","Dose [Inhibitor]: 0.2, 2 PPM IN DIET BEGINNING 3 D PRIOR TO CARCINOGEN DOSE AND CONTINUING FOR 8 MO (STUDY DURATION: 8 MO), Species: MOUSE, Strain/Sex: BALB/FEMALE, Target Tissue: Type of Lesion: MAMMARY GLAND: ADENOCARCINOMA, Dose [Carcinogen]: 1 MG/WK FOR 6 WK","12/31 (39%), 4/34 (12%), 69%, p<0.025"
same,"tumour outcome (control, treated, inhibition, significance)","Dose [Inhibitor]: 0.5 PPM IN 5% CORN OIL DIET DAILY STARTING 29 D BEFORE CARCINOGEN TREATMENT AND CONTINUING FOR DURATION OF STUDY (STUDY, Species: RAT, Strain/Sex: SPRAGUE-DAWLEY/FEMALE, Target Tissue: Type of Lesion: MAMMARY GLAND: ADENOCARCINOMA, Dose [Carcinogen]: 5 MG IN CORN OIL ONCE AT 50 D OF AGE","12/30 (40%), 11/30 (37%), 8%, not significant"
same,"tumour outcome (control, treated, inhibition, significance)","Dose [Inhibitor]: 0.5 PPM IN 25% CORN OIL DIET DAILY STARTING 29 D BEFORE CARCINOGEN TREATMENT AND CONTINUING FOR DURATION OF STUDY (STUDY, Species: RAT, Strain/Sex: SPRAGUE-DAWLEY/FEMALE, Target Tissue: Type of Lesion: MAMMARY GLAND: ADENOCARCINOMA, Dose [Carcinogen]: 5 MG IN CORN OIL ONCE AT 50 D OF AGE","21/30 (70%), 20/29 (69%), 1%, not significant"
same,"tumour outcome (control, treated, inhibition, significance)","Dose [Inhibitor]: 0.5 PPM IN DIET DAILY STARTING 1 WK PRIOR TO CARCINOGEN TREATMENT AND CONTINUING FOR DURATION OF STUDY (STUDY DURATION:, Species: MOUSE, Strain/Sex: BD2F1/FEMALE, Target Tissue: Type of Lesion: MAMMARY GLAND: TUMOR, Dose [Carcinogen]: 1 MG IN 0.2 ML COTTONSEED OIL 1/WK FOR 6 WK STARTING AT 8 WK OF AGE","18/32 (56%), 10/33 (30%), 46%, not calculated"
